# Measured values: a melting point compilation (Tetko et al.)
row,melting point,SMILES
1,75 to 77 °C,CC(O)c1nc(-c2ccccc2)cs1 (configuration not stated)
2,36 to 38 °C,Cc1nc(C(C)(C)C)nc(Cl)c1C
3,145 to 147 °C,Nc1ccc(NC(=O)C2CC2)cc1C(F)(F)F
4,59 to 61 °C,CC1CCCC(O)(CN)C1 (configuration not stated)
5,86 to 88 °C,CC(C(=O)O)S(C)(=O)=O (configuration not stated)
6,57 to 59 °C,Cc1cc(Cl)c(Cl)cc1[N+](=O)[O-]
7,250 to 252 °C,CC(C)c1ccc(/C=C(/C(=O)O)c2cccs2)cc1
8,141 to 143 °C,Cc1cccc(C2(C(=O)O)CCCCC2)c1
9,134 to 136 °C,CC(C)S(=O)(=O)Cc1ccc(N)cc1
10,86 to 88 °C,NCc1cccc(NC(=O)C2CCCC2)c1
11,249 to 251 °C,COc1ccc(-c2csc3nc(C)[nH]c(=O)c23)cc1OC
12,105 to 107 °C,CNC(=O)CC1CCNCC1
13,63 to 65 °C,OCC1Cc2cc(Br)ccc2O1 (configuration not stated)
14,203 to 205 °C,Cc1cc(C)c(C(=O)O)cc1N
15,224 to 226 °C,O=C(O)CC1NC(=O)N(c2ccc(F)cc2)C1=O (configuration not stated)
16,79 to 81 °C,Clc1ncnc2c1CCCC2
17,75 to 77 °C,COC(=O)C1(O)CCN(Cc2ccccc2)CC1
18,69 to 71 °C,COc1ncnc(N(C)C)c1N
19,256 to 258 °C,NC(=O)c1ccc(N)nn1
20,28 to 30 °C,CC(C)CC(=O)Cc1ccc(Cl)cc1Cl
21,105 to 107 °C,CC(C)Oc1nnc(S)s1
22,163 to 165 °C,CC(C)(C)c1ccc(=O)[nH]n1
23,159 to 161 °C,CC(Cl)C(=O)NCCc1ccc(S(N)(=O)=O)cc1 (configuration not stated)
24,197 to 199 °C,Nc1nnc(Cc2ccc(F)cc2)[nH]1
25,115 to 117 °C,CC(Cl)C(=O)Nc1cccc([N+](=O)[O-])c1 (configuration not stated)
26,85 to 87 °C,Cc1n[nH]c(C)c1C=O
27,33 to 35 °C,COc1ccc(Cl)cc1C(C)=O

row,melting point,SMILES
1,120 to 122 °C,CC(=O)N1CCC(NC(=O)CCl)CC1
2,114 to 116 °C,Cc1nc(CC(=O)NN)cs1
3,89 to 91 °C,CC(=O)N1CCN(C(=O)CCl)CC1
4,38 to 40 °C,CN1CCc2cc(C=O)ccc21
5,33 to 37 °C,CCOc1ccc(C(C)=O)cc1CN1CCCCC1
6,241 to 243 °C,CC(=O)c1c(C)oc(N)c1C#N
7,97 to 99 °C,Oc1ccc2c(c1)OCCCO2
8,113 to 115 °C,COc1ccc(OC)c(-c2csc(N)n2)c1
9,201 to 203 °C,CC(C)(C)c1ccc(C2(C(=O)O)CC2)cc1
10,207 to 209 °C,CCCc1[nH]ncc1C(=O)O
11,45 to 47 °C,N#Cc1ccc(C2OCCO2)cc1
12,99 to 101 °C,O=C(O)c1nc(Cl)cnc1Br
13,157 to 159 °C,O=C(O)CCN1C(=O)CCc2ccccc21
14,172 to 174 °C,COC(=O)c1cc(C(C)(C)C)n[nH]1
15,91 to 93 °C,O=C(O)CN1C(=O)CCC1=O
16,110 to 112 °C,Cc1ccc(C(NC(=O)CCl)c2cccs2)cc1 (configuration not stated)
17,111 to 113 °C,CC(=O)N1CSCC1C(=O)O (configuration not stated)
18,149 to 151 °C,Nc1ccc(N2CCOC2=O)cc1
19,45 to 47 °C,Cc1cccc(C2(C(F)(F)F)CCCN2)c1C (configuration not stated)
20,132 to 134 °C,N#CCC(=O)NC1CCCCC1
21,235 to 237 °C,Cc1cc(NC(=O)Nc2cc(C)nn2C(C)(C)C)n(C(C)(C)C)n1
22,258 to 260 °C,O=C(O)C1CCCN(C(=O)c2ccncc2)C1 (configuration not stated)
23,162 to 164 °C,Cc1ccccc1C1(C(=O)O)CCCCC1
24,159 to 161 °C,CON=C(C(=O)N[C@@H]1C(=O)N2C(C(=O)O)=C(CSc3nnnn3C)CS[C@H]12)c1csc(N)n1
25,76 to 78 °C,Cc1nnc(CN)s1
26,132 to 134 °C,Cc1noc(-c2ccc([N+](=O)[O-])c(C)c2)n1
27,203 to 205 °C,CC1CNc2ccccc2NC1=O (configuration not stated)

row,melting point,SMILES
1,153 to 155 °C,Nc1ccc(N2CCN(C(=O)C3CC3)CC2)cn1
2,104 to 106 °C,COc1cccc(Cc2nnc(N)s2)c1
3,158 to 160 °C,CCc1nc(C)ncc1C(=O)O
4,189 to 191 °C,O=C(O)C1CC2CCCCC2N1C(=O)c1ccc(F)cc1F (configuration not stated)
5,156 to 158 °C,CC(=O)c1nc2ccc(C)cc2[nH]1
6,299 to 301 °C,Oc1cnc2cc(Cl)c(Cl)cc2n1
7,112 to 114 °C,CC(=O)N1c2ccc(S(=O)(=O)Cl)cc2CC1C (configuration not stated)
8,77 to 79 °C,CCn1ccnc1C(O)CCc1ccccc1 (configuration not stated)
9,65 to 67 °C,CC(C)(C(=O)O)c1cccc(Cl)c1
10,198 to 202 °C,CCCc1nnc(N)s1
11,164 to 166 °C,Nc1cccc(-n2c(O)c(O)n(C3CC3)c2=O)c1
12,146 to 148 °C,CC(C)c1nnc(S)n1C1CC1
13,250 to 252 °C,CC(Cl)c1nc2ccccc2c(=O)[nH]1 (configuration not stated)
14,78 to 80 °C,COc1ccc(O)cc1C(C)=O
15,77 to 79 °C,CC(C)(C)OC(=O)N1CCC(c2ccc(C(F)(F)F)cc2)C(N)C1 (configuration not stated)
16,107 to 109 °C,Cc1nn(C)c2ncc(C=O)cc12
17,112 to 114 °C,Oc1ccc(CN2CCCC2)c2cccnc12
18,158 to 160 °C,CC(=O)Nc1nc(C)c(S(=O)(=O)Cl)s1
19,159 to 161 °C,O=C(O)C1CCN(c2cncc3nnnn23)CC1
20,101 to 103 °C,Nc1ccc(CN2CCN(c3ccccn3)CC2)cc1
21,127 to 129 °C,Cc1n[nH]c(C2CCCCC2)n1
22,180 to 182 °C,O=c1c2cc(Cl)ccc2nc2n1CCC2
23,93 to 95 °C,CC(C)c1ccc(C(=O)O)c(O)c1
24,195 to 197 °C,Cc1cccc(Nc2nnc(S)s2)c1C
25,94 to 96 °C,CCN(CC)S(=O)(=O)c1ccc(N2CCOCC2)c(N)c1
26,104 to 106 °C,c1cn2c(n1)NCCC2

# The remaining lines, values behind:
row,SMILES,melting point
1,C=CCc1cc(C=O)cc(OC)c1O,80 to 82 °C
2,Cc1cc(C)c(C(=O)CCCC(=O)O)c(C)c1,75 to 77 °C
3,NCc1cccc(NC(=O)c2cccc(F)c2)c1,100 to 102 °C
4,Cc1ccc(Cl)c2ccc(N)nc12,104 to 106 °C
5,Clc1ccnc2ccsc12,32 to 34 °C
6,O=C(O)c1cc(Br)ccc1F,179 to 182 °C
7,O=C(O)Cc1csc(-c2ccc(Cl)s2)n1,136 to 138 °C
8,O=C1OCC(c2ccc(Cl)cc2)=C1c1cccs1,65 to 67 °C
9,CCNS(=O)(=O)c1ccc(Br)c(C(=O)O)c1,198 to 200 °C
10,NC(=O)CN1CC(C(=O)O)CC1=O (configuration not stated),169 to 171 °C
11,CN(CC(=O)O)S(=O)(=O)c1ccc2c(c1)OCCO2,141 to 143 °C
12,O=C1C(=O)N(Cc2ccccc2Cl)c2ccccc21,130 to 132 °C
13,CCNC(=O)CN(CC)C(=O)CCl,246 to 248 °C
14,O=C(O)c1ccc(-c2ccco2)o1,147 to 149 °C
15,CC(C)CN(CC(C)C)C(=O)CC(=O)N(CC(C)C)CC(C)C,51 to 53 °C
16,O=C(O)c1ccc(CN2CCc3ccccc32)cc1,182 to 184 °C
17,CC1(C)COC2(CCNCC2)OC1,62 to 64 °C
18,CCC(Nc1ccccc1)C(N)=O (configuration not stated),122 to 124 °C
19,COCC(C)(O)C(=O)O (configuration not stated),53 to 55 °C
20,CC(C)(C)c1ccc(C(=O)NCCC(=O)O)cc1,129 to 131 °C
21,Nc1cccnc1Nc1ccccc1,135 to 137 °C
22,Cc1ccc2c(C(=O)CC#N)c[nH]c2c1,268 to 270 °C
23,CS(=O)(=O)CCC(=O)O,100 to 102 °C

row,SMILES,melting point
1,O=C(NCCO)c1cccnc1,74 to 76 °C
2,CCCCS(=O)(=O)NCC(=O)O,65 to 67 °C
3,COCCCC(N)=NO,84 to 86 °C
4,O=C(O)c1nn(-c2ccccc2)cc1CCCO,119 to 121 °C
5,O=C(O)c1ccc(-c2nc3ccccc3s2)o1,180 to 188 °C
6,CN(C)c1ccc(/C=C/C(=O)c2ccc([N+](=O)[O-])cc2)cc1,213 to 215 °C
7,O=C(Nc1cccc2c1CCCN2)c1ccc(F)cc1,156 to 158 °C
8,CC(=O)Nc1cc(N)c(F)cc1F,104 to 106 °C
9,Cc1cc(=O)[nH]c(-c2cccc(O)c2)n1,213 to 215 °C
10,COc1cn(-c2cccc(C(F)(F)F)c2)nc1C(=O)O,149 to 151 °C
11,COc1ccc(Br)cc1NCc1ccncc1,89 to 91 °C
12,C#CCNC(=O)Nc1ccc(Cl)cc1,211 to 213 °C
13,N#Cc1cccc(I)c1N,115 to 117 °C
14,O=C(O)COc1ccc2ccc(=O)oc2c1,213 to 215 °C
15,NS(=O)(=O)Cc1ccc(CO)cc1,118 to 120 °C
16,CCOC(=O)COc1ccc(O)cc1,121 to 123 °C
17,CCC(C)(N)C(=O)O (configuration not stated),276 to 278 °C
18,O=C(O)Cc1c(F)cncc1Cl,99 to 101 °C
19,O=C(O)c1cc(C(=O)O)cc(S(=O)(=O)Cl)c1,217 to 219 °C
20,CC(=O)c1ccc(S(=O)(=O)C(F)F)cc1,92 to 94 °C
21,O=C(O)Cc1csc(NC(=O)Cc2cccs2)n1,200 to 202 °C
22,COC(=O)CS(N)(=O)=O,57 to 59 °C
23,COc1cc(C)ccc1OCC(=O)O,118 to 120 °C

row,SMILES,melting point
1,O=C(O)c1ccsc1C(=O)O,268 to 270 °C
2,CC(C)(C)C(=O)C(Cl)Cl,50 to 52 °C
3,O=C1CC(C(=O)O)CN1 (configuration not stated),129 to 131 °C
4,CCNC(C(=O)O)c1ccc(F)c(F)c1 (configuration not stated),277 to 279 °C
5,O=C(O)c1csc(-c2ncccn2)n1,217 to 219 °C
6,NCc1nc(-c2ccc(Cl)cc2)cs1,105 to 107 °C
7,CS(=O)(=O)c1cccc(Cl)c1C(=O)O,147 to 149 °C
8,O=C(O)CCCNc1nc(-c2ccccc2)cs1,155 to 157 °C
9,Cc1cc(C=O)c(C)n1C1CCCCC1,75 to 77 °C
10,O=C(O)c1sc(-c2ccccc2)cc1OCC(=O)N1CCCCC1,164 to 166 °C
11,O=C(O)c1c2c(nc3ccccc13)CCN(Cc1ccccc1)C2,224 to 226 °C
12,NCC(O)(c1ccccc1)C(F)(F)F (configuration not stated),76 to 78 °C
13,O=C(O)c1cnn(CCCl)c1,147 to 149 °C
14,O=C(c1ccccc1)c1c(Cl)cccc1Cl,82 to 84 °C
15,O=C(O)CCC(NC(=O)c1ccccc1)C(=O)O (configuration not stated),133 to 135 °C
16,CN(C)C(=O)c1cccc(S(N)(=O)=O)c1,121 to 123 °C
17,COC(=O)c1cc(S(N)(=O)=O)ccc1F,97 to 99 °C
18,Cc1ccc(C=CCC(=O)O)cc1,105 to 107 °C
19,CCOC(=O)c1ccc(S(N)(=O)=O)nc1,114 to 116 °C
20,Nc1ccc(CC(=O)Nc2ccccc2F)cc1,110 to 112 °C
21,CS(=O)(=O)CCCS(=O)(=O)Cl,62 to 64 °C
